The values that follow come from ChEMBL document CHEMBL5528022, “Discovery of a brain-permeable bromodomain and extra terminal domain (BET) inhibitor with selectivity for BD1 for the treatment of multiple sclerosis” (Eur J Med Chem, 2024).

The source made the active and inactive calls. No cut-off for these calls is given here.

The target of data set [1] is Bromodomain-containing protein 3 (Homo sapiens, UniProt Q15059). The experiment in a line: Inhibition of BRD3 BD2 (unknown origin) incubated for 15 mins by HTRF method. (In general: In TR-FRET formats the signal depends on donor and acceptor labels being close together.)
A short description of data set [2]: Free maximum concentration of drug in ICR mouse brain. Format: ADME, tissue-based.
Data set [3] is described as follows: Toxicity in C57BL/6 mouse model of experimental autoimmune encephalomyelitis assessed as animal death at 30 to 60 mg/kg, ip administered 6 days post immunization and measured every 3 days for 28 days post immunization. In kind it is organism-based. As to conditions: in vivo, 144 h, dose 30-60 mg/kg, time 6 day.
A short description of data set [4]: Lipophilicity, logD of compound at pH 7.4 by LC-MS/MS based shake bottle method. In kind it is physicochemical. As to conditions: buffer.
Data set [5] concerns the target Bromodomain testis-specific protein (Homo sapiens, UniProt Q58F21). The data set can be described thus: Inhibition of BRDT BD2 (unknown origin) incubated for 15 mins by HTRF method.
A short description of data set [6]: Selectivity ratio of IC50 for inhibition of BRD4 BD2 (unknown origin) to IC50 for inhibition of BRD4 BD1 (unknown origin).
Data set [7] deals with Mus musculus. The data set can be described thus: Anti-inflammatory activity in complete Freund's adjuvant/MOG (35 to 55 residues)/pertussis toxin-induced experimental autoimmune encephalomyelitis C57BL/6 mouse model assessed as myelin density at 60 mg/kg, ip qd administered 6 days post immunization and measured every 3 days for 28 days post immunization by Luxol fast blue staining based bright field fluorescence microscopic analysis. As to conditions: time 22.0 day. Format: functional, organism-based.

In data set [8] the target is T1, Bromodomain-containing protein 4 (Homo sapiens, UniProt O60885). The experiment in a line: Binding affinity to BRD4 BD2 (unknown origin) assessed as change in gibbs free energy by ITC method. (Isothermal titration calorimetry measures the heat released or taken up as one component is titrated into another.)
Data set [9] in a line: Selectivity ratio of Kd for binding affinity to BRD4 BD2 (unknown origin) by ITC assay to Kd for binding affinity to BRD4 BD1 (unknown origin) by ITC assay.
In data set [10] the target is T1, Bromodomain-containing protein 4. The data set can be described thus: Binding affinity to BRD4 BD1 (unknown origin) assessed as change in entropy by ITC method.
The subject of data set [11] is Mus musculus. The data set can be described thus: Anti-inflammatory activity in complete Freund's adjuvant/MOG (35 to 55 residues)/pertussis toxin-induced experimental autoimmune encephalomyelitis C57BL/6 mouse model assessed as reduction in IL-6 level at 30 to 60 mg/kg, ip qd administered 6 days post immunization and measured every 3 days for 28 days post immunization. In kind it is functional, organism-based. As to conditions: dose 30-60 mg/kg, time 22.0 day.

For data set [12], the system named is Mus musculus. The data set can be described thus: Anti-inflammatory activity in complete Freund's adjuvant/MOG (35 to 55 residues)/pertussis toxin-induced experimental autoimmune encephalomyelitis C57BL/6 mouse model assessed as change in cumulative scores at 30 to 60 mg/kg, ip qd administered 6 days post immunization and measured every 3 days for 28 days post immunization. Format: functional, organism-based. As to conditions: dose 30-60 mg/kg, time 22.0 day.

Data set [13] is described as follows: Cmax in C57BL/6 mouse spinal cord at 5 mg/kg, iv measured upto 25 hrs by LC-MS/MS analysis. Format: ADME, organism-based.
Data set [14] can be described thus: Stability in rat liver microsomes assessed as intrinsic clearance. In kind it is ADME, Microsome. As to conditions: read-out: CLH. For orientation: Liver microsomes are a subcellular fraction often used to study metabolism.

Chain of Bromodomain-containing protein 3 (Q15059 whole entry): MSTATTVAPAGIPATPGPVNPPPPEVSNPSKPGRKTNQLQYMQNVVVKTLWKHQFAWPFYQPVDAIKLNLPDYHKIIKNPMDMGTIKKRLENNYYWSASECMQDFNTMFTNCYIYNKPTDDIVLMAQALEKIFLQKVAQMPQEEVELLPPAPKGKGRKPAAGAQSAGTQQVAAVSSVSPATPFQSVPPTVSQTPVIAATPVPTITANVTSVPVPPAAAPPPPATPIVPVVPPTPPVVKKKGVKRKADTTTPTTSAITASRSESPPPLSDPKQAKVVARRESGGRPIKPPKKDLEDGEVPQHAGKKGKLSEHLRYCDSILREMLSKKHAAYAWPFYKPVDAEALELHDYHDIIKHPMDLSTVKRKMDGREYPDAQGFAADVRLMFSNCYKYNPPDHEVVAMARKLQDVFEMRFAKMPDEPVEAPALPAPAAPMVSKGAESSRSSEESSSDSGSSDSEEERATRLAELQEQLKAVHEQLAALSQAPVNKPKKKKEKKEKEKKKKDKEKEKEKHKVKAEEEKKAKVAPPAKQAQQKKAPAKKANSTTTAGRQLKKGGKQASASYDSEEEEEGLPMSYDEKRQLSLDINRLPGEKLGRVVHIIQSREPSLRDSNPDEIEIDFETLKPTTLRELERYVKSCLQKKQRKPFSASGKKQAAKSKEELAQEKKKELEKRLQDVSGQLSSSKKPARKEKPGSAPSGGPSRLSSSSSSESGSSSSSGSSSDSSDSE

For orientation: IC50 means the concentration that inhibits the measured activity by half. A lower IC50 goes with greater potency in that assay. What is called logD is the decadic logarithm of the distribution of all forms, ionised or not, between an organic phase and buffer at a given pH. High values mean a more lipophilic compound, low ones a more hydrophilic compound. A word on the Cmax: it is the peak of the concentration-time curve. Turning to `Cc1nn(CC2CC2)c(C)c1-c1cncc(-c2ccnc3nc[nH]c23)c1`, the figures for the half-inhibitory concentration (IC50) in data set [1] and in [5] were 1.94 µM and 3.04 µM, respectively. Also, in [2], the fCmax was determined as 170 nM. Also, the Activity entry in data set [3] is listed as “Non-Toxic”. In addition, in data set [4], the pH-dependent lipophilicity (logD) was found to be 2.31. Further, the Ratio IC50 in [6] came to 28. The outcome with Mus musculus [7], with Mus musculus [11] and in the data set with Mus musculus [12] was Active. In addition, the deltaG in [8] is -6.37 kcal/mol. In data set [9], the Selectivity ratio was found to be 38. In addition, in data set [10], the TdeltaS was found to be 7.1 kcal/mol. For the same compound, in [13], the highest level (Cmax) was 3000 nM. For the same compound, in data set [14], the microsomal CLint was 3.2 µL/min/mg.
